Reference: PubChem BioAssay AID1963830 (Molecular Pharmacology Branch, DTP, NCI, 2024)
pIC50: −log10 of the molar value.

Tested on: 922993-354-T-J3-PDC complex spheroid viability
Test: Anticancer human tumor 922993-354-T-J3-PDC patient-derived endometrial carcinoma cell line growth inhibition [POLQ]
Conditions: for pIC50: curve of first compound; for viability, T/C: stronger effect = lower value
Method: Multicellular complex tumor spheroid response to Polymerase (POL) inhibitors (novobiocin, ART-558, RP6685) in combination with a variety of drugs and investigational agents in selected tumor cell lines
The POL inhibitors (novobiocin, ART-558, and RP6685) were evaluated both individually and in combination with standard of care and investigational anticancer small molecules within a complex spheroid model of solid tumors. . Complex spheroids include a stromal component modeled by human endothelial cells (HUVEC) and fibroblasts modeled by human mesenchymal stem cells (MSCs). The concentration ranges selected for each drug and investigational agent were based upon clinically achievable concentrations if the clinical Cmax of the agent was known.
Compounds. The drugs and investigational agents: novobiocin (NSC847541), ART-558 (NSC835418), RP-6685 (NSC848927), peposertib (NSC802822), ceralasertib (NSC780249), elimusertib (NSC800525), camonsertib (NSC841442), AZD-1390 (NSC803789), olaparib (NSC753686), talazoparib (NSC767125), rucaparib (NSC756644), sotorasib (NSC818433), MRTX-1133 (NSC836407), SN-38 (NSC673596), topotecan (NSC609699), epotoside (NSC141540), doxorubicin (NSC123127), gemcitabine (NSC613327), 5-fluorouracil (NSC19893), paclitaxel (NSC125973), vemurafenib (NSC761431), MSA-2 (NSC828583), SN-011 (NSC837082), adavosertib (NSC754352), prexasertib (NSC758257), carboplatin (NSC241240) and oxaliplatin (NSC266046), were obtained from the National Cancer Institute (NCI) Developmental Therapeutics Program Chemical Repository (21). The FDA-approved anticancer drug set is available from the Developmental Therapeutics Program at https://dtp.cancer.gov/organization/dscb/obtaining/. […] The stock solutions were prepared in dimethyl sulfoxide (DMSO, Sigma-Aldrich, St. Louis, MO, cat. D2650), except for the platinum compounds which were prepared in saline (Quality Biological, Gaithersburg, MD, cat. 114-055-101), at 800-fold the tested concentration and stored at -70 degrees C prior to their use. All drugs and investigational agents were tested over a range starting from a high concentration at or near the clinical Cmax and decreasing in half-log increments. If the clinical Cmax for an agent had not been determined, the highest concentration tested was 10 microM, except for SN-38, which was tested at a high concentration of 1 microM.
Cell Culture. All cells were maintained in an incubator at 37 degrees C and 5% CO2 with 95% humidity. The PDC lines were cultured according to standard operating procedures established by the NCI PDMR (https://pdmr.cancer.gov). Table 3 of the manuscript, lists the cell lines along with the number of the three cell types plated to form the mct-spheroids and media for tumor cell growth. After thawing, all PDC lines, except 997537-175-T-J1-PDC and 415267-285-R-J2-PDC, were cultured in Matrigel-coated flasks prepared with a working solution of 1X Ham's F-12 nutrient mix, without supplementation (Thermo Fisher Scientific, cat. 11765054), 100 U/mL penicillin-streptomycin (Thermo Fisher Scientific, cat. 15140122), and 2.5% Matrigel (Corning Inc., Corning, NY, cat. 354248) for the first three passages. The two PDC lines 997537-175-T-J1-PDC and 415267-285-R-J2-PDC were cultured on uncoated flasks. The 857933-349-R-J2-PDC line was cultured in 6C/Colon 1B media containing advanced DMEM/F-12 (Thermo Fisher Scientific, cat. 12634028), 10 mM HEPES (Thermo Fisher Scientific, cat. 15630080), 1X GlutaMAX supplement (Thermo Fisher Scientific, cat. 35050061), 0.1 mg/mL primocin (InvivoGen, San Diego, CA, cat. ant-pm-2), 10% defined fetal bovine serum, heat inactivated (HyClone Laboratories Inc., Logan, UT, cat. SH30070.03HI), 50% L-WRN conditioned media (ATCC, cat. CRL-3276), 1.25 mM N-Acetyl-L-cysteine (Sigma-Aldrich, cat. A9165), 10 mM nicotinamide (Sigma-Aldrich, cat. N0636), 1X B-27 supplement (Thermo Fisher Scientific, cat. 17504044), 1X N-2 supplement (Thermo Fisher Scientific, cat. […]

[1] = second compound 0.0316 µM, first compound 0.0316 µM
[2] = second compound 0.0316 µM, first compound 0.1 µM
[3] = second compound 0.0316 µM, first compound 0.316 µM
[4] = second compound 0.0316 µM, first compound 1 µM
[5] = second compound 0.0316 µM, first compound 3.16 µM
[6] = second compound 0.0316 µM, first compound 10 µM
[7] = second compound 0.1 µM, first compound 0.0316 µM
[8] = second compound 0.1 µM, first compound 0.1 µM
[9] = second compound 0.1 µM, first compound 0.316 µM
[10] = second compound 0.1 µM, first compound 1 µM
[11] = second compound 0.1 µM, first compound 3.16 µM
[12] = second compound 0.1 µM, first compound 10 µM
[13] = second compound 0.316 µM, first compound 0.0316 µM
[14] = second compound 0.316 µM, first compound 0.1 µM
[15] = second compound 0.316 µM, first compound 0.316 µM
[16] = second compound 0.316 µM, first compound 1 µM
[17] = second compound 0.316 µM, first compound 3.16 µM
[18] = second compound 0.316 µM, first compound 10 µM
[19] = second compound 1 µM, first compound 0.0316 µM
[20] = second compound 1 µM, first compound 0.1 µM
[21] = second compound 1 µM, first compound 0.316 µM
[22] = second compound 1 µM, first compound 1 µM
[23] = second compound 1 µM, first compound 3.16 µM
[24] = second compound 1 µM, first compound 10 µM
[25] = second compound 3.16 µM, first compound 0.0316 µM
[26] = second compound 3.16 µM, first compound 0.1 µM
[27] = second compound 3.16 µM, first compound 0.316 µM
[28] = second compound 3.16 µM, first compound 1 µM
[29] = second compound 3.16 µM, first compound 3.16 µM
[30] = second compound 3.16 µM, first compound 10 µM
[31] = second compound 10 µM, first compound 0.0316 µM
[32] = second compound 10 µM, first compound 0.1 µM
[33] = second compound 10 µM, first compound 0.316 µM
[34] = second compound 10 µM, first compound 1 µM
[35] = second compound 10 µM, first compound 3.16 µM
[36] = second compound 10 µM, first compound 10 µM
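Further: spheroids exposed to the agents for one week.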
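Wherever viability, T/C is given: 100% = DMSO vehicle control wells.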

COc1cccc2c1C(=O)c1c(O)c3c(c(O)c1C2=O)CC(O)(C(=O)CO)CC3OC1CC(N)C(O)C(C)O1 (centres undefined) + Cc1cccc(N(C)C(=O)C2C(O)CCN2c2nc(C)cc(C(F)(F)F)c2C#N)c1
pIC50 (second compound 0.0316 µM): 5.90 | pIC50 (second compound 0.1 µM): 5.92 | pIC50 (second compound 0.316 µM): 6.02 | pIC50 (second compound 1 µM): 5.95 | pIC50 (second compound 3.16 µM): 6.26 | pIC50 (second compound 10 µM): 6.73 | viability, T/C [1]: 96.3% | viability, T/C [2]: 88% | viability, T/C [3]: 81.4% | viability, T/C [4]: 51.8% | viability, T/C [5]: 32.3% | viability, T/C [6]: 11.7% | viability, T/C [7]: 101% | viability, T/C [8]: 97.2% | viability, T/C [9]: 81.6% | viability, T/C [10]: 55.1% | viability, T/C [11]: 26.4% | viability, T/C [12]: 11.6% | viability, T/C [13]: 103% | viability, T/C [14]: 92.7% | viability, T/C [15]: 84.9% | viability, T/C [16]: 45% | viability, T/C [17]: 27.2% | viability, T/C [18]: 12.9% | viability, T/C [19]: 105% | viability, T/C [20]: 95.9% | viability, T/C [21]: 72.6% | viability, T/C [22]: 53.6% | viability, T/C [23]: 28.8% | viability, T/C [24]: 10.3% | viability, T/C [25]: 88.2% | viability, T/C [26]: 93.3% | viability, T/C [27]: 60.3% | viability, T/C [28]: 35.8% | viability, T/C [29]: 17.7% | viability, T/C [30]: 7.76% | viability, T/C [31]: 94.3% | viability, T/C [32]: 65.2% | viability, T/C [33]: 38.3% | viability, T/C [34]: 16.5% | viability, T/C [35]: 11.8% | viability, T/C [36]: 11.6%

CCc1cc2c(N3CCc4c(cc(Cn5ccnc5)cc4-c4cn(C)nc4C(F)(F)F)C3=O)cc(C)nc2c(OC)n1 + Nc1ccc(C#CCN(C(=O)Cc2ncc(C(F)(F)F)cc2C(F)(F)F)c2ccc(F)cc2)nn1
pIC50 (second compound 0.0316 µM): < 5.00 | pIC50 (second compound 0.1 µM): < 5.00 | pIC50 (second compound 0.316 µM): < 5.00 | pIC50 (second compound 1 µM): < 5.00 | pIC50 (second compound 3.16 µM): < 5.00 | pIC50 (second compound 10 µM): < 5.00 | viability, T/C [1]: 103% | viability, T/C [2]: 106% | viability, T/C [3]: 105% | viability, T/C [4]: 110% | viability, T/C [5]: 107% | viability, T/C [6]: 101% | viability, T/C [7]: 108% | viability, T/C [8]: 106% | viability, T/C [9]: 108% | viability, T/C [10]: 105% | viability, T/C [11]: 101% | viability, T/C [12]: 102% | viability, T/C [13]: 103% | viability, T/C [14]: 98.1% | viability, T/C [15]: 105% | viability, T/C [16]: 106% | viability, T/C [17]: 109% | viability, T/C [18]: 104% | viability, T/C [19]: 102% | viability, T/C [20]: 100% | viability, T/C [21]: 107% | viability, T/C [22]: 107% | viability, T/C [23]: 106% | viability, T/C [24]: 99.1% | viability, T/C [25]: 99.8% | viability, T/C [26]: 107% | viability, T/C [27]: 102% | viability, T/C [28]: 105% | viability, T/C [29]: 103% | viability, T/C [30]: 99.6% | viability, T/C [31]: 99% | viability, T/C [32]: 98.3% | viability, T/C [33]: 100% | viability, T/C [34]: 102% | viability, T/C [35]: 99.3% | viability, T/C [36]: 92%
